Results reported in article PMC9221509, “Discovery of a Novel Antimicrobial Peptide, Temporin-PKE, from the Skin Secretion of Pelophylax kl. esculentus, and Evaluation of Its Structure-Activity Relationships” (Biomolecules, 2022).
Converted amounts (≈) assume the structure as drawn. Like-named read-outs stand apart in the source and are kept apart here. Non-standard residues stand in square brackets, D forms with d. Residues, ends and D or L forms follow the SMILES beside them. No end group written: not given here.

Legend:
[1] = tested on: MRSA (NCTC 12493) biofilm; assay type: cell-based, methicillin-resistant Staphylococcus aureus; details: NCTC 12493, 24 h
Description: (§1) The anti-biofilm activities of the peptides against S. aureus (ATCC 6538), MRSA (NCTC 12493), E. faecalis (NCTC 12697), E. coli (ATCC CRM 8739), K. pneumoniae (ATCC 43816), and P. aeruginosa (ATCC CRM 9027), were evaluated. For the MBIC assay, 99 µL of bacterial suspension (5 × 10^5 CFU/mL) was mixed with 1 µL of serial dilutions (from 100 µM to 51,200 µM) of temporin-PKE and its analogues in a 96-well plate, and the plate was incubated in a moist shaking incubator at a speed of 200 rpm at 37 °C for 24 h. For the MBEC assay, 100 µL of bacterial suspension (5 × 10^5 CFU/mL) in each well was seeded in a new 96-well plate, and the plate was put into the same shaking incubator for 24 h incubation to allow biofilm formation on the well. After biofilm formation, the biofilm in the plate was washed with PBS twice. The PBS was aspirated between washes to remove planktonic bacterial cells. The washed biofilm in each well was treated with 100 µL of serial dilutions (from 1 µM to 512 µM) of the test peptides. Then, the plate was incubated in the same shaking incubator for another 24 h. After being washed by PBS twice and fixed with methanol, the biofilm in each well was incubated with 100 µL of 0.1% crystal violet for 30 min, and the stained biofilm was dissolved in 100 µL of glacial acidic acid after drying. The solutions were transferred to a new microplate, and the absorbance of each well was measured using a microplate reader (EL808, Biolise BioTek, Winooski, VT, USA) set to 595 nm wavelength. The MBIC was the minimum concentration of the peptide showing no biofilm formation. The MBEC is the lowest concentration of the peptide capable of eradicating the mature biofilms, which had no biofilm in the well.

[2] = tested on: P. aeruginosa (ATCC CRM 9027) biofilm; assay type: cell-based, Pseudomonas aeruginosa; details: ATCC CRM 9027, 24 h
Description: as §1

MRSA (NCTC 12493) [3] = assay: microbe, parasite or virus in culture; assay type: cell-based, methicillin-resistant Staphylococcus aureus; details: for MBC: NCTC 12493, 18 h; for MIC: NCTC 12493, 24 h
Description: (§2) The antimicrobial activities of peptides were evaluated against the Gram-positive bacteria, S. aureus (ATCC 6538), methicillin-resistant Staphylococcus aureus (MRSA) (NCTC 12493), Enterococcus faecalis (E. faecalis) (NCTC 12697); the Gram-negative bacteria, E. coli (ATCC CRM 8739), Klebsiella pneumoniae (K. pneumoniae) (ATCC 43816), Pseudomonas aeruginosa (P. aeruginosa) (ATCC CRM 9027); and the yeast, Candida albicans (C. albicans) (ATCC CRM 10231). Clinical isolates of MRSA (B042 V2E1 A), E. coli (ATCC BAA-2340), K. pneumoniae (ATCC BAA-1705), and P. aeruginosa (B004 V2S2 B) were also used to determine their antimicrobial activities. The suspension of microorganisms in the logarithmic growth phase with a specific final density (Gram-negative and Gram-positive bacteria: 5 × 10^5 CFU/mL; yeast: 1 × 10^6 CFU/mL) was incubated with different peptide concentrations from 1 µM to 512 µM at 37 °C for 24 h. PBS was used as the negative control, and norfloxacin and amphotericin B were selected as the positive control for bacteria and yeast, respectively. Since the Norfloxacin had weak activities against P. aeruginosa (B004 V2S2 B) and K. pneumoniae (ATCC BAA 1705), gentamicin was used as the positive control for these two bacterial strains. The absorbance of each well was obtained using a microplate reader (EL808, Biolise BioTek, Winooski, VT, USA) set at 550 nm wavelength. The MIC value was the lowest concentration of a peptide that inhibits visible bacterial growth. Once the MIC values were determined, an aliquot from the bacterial culture exposed to the peptide at or above its MIC value was inoculated on a Mueller Hinton agar (MHA) and was incubated at 37 for 18 h. The MBC value was the lowest concentration of a peptide that kills 99.9% of bacteria.

MRSA (B042 V2E1 A) = assay: microbe, parasite or virus in culture; assay type: cell-based, methicillin-resistant Staphylococcus aureus; details: B042 V2E1 A; for MBC: 18 h; for MIC: 24 h
Description: as §2

MRSA (NCTC 12493) [4] = assay type: cell-based, methicillin-resistant Staphylococcus aureus; details: NCTC 12493, 24 h
Description: as §2
(§3) According to the procedures in a previous article, the analysis of the sensitivity of the peptides was determined by measuring MIC values in the presence of different types of salts and 10% fetal bovine serum. MRSA (NCTC 12493) and K. pneumoniae (ATCC 43816) were selected as the subjects of these assays. Various salts at different concentrations, including 150 mM NaCl, 4.5 mM KCl, 6 μM NH4Cl, 1 mM MgCl2, […], […], and 10% serum (Gibco, Auckland, New Zealand), were added to the MHB medium for the examination of the MIC values which were determined as described in Section 2.7.

[5] = tested on: K. pneumoniae (ATCC 43816); assay type: cell-based, Klebsiella pneumoniae; details: ATCC 43816, 24 h
Description: as §2, §3

Row | Compound | MBIC [1] [µM] | MBIC [2] [µM] | MBC (MRSA (NCTC 12493) [3]) | MBC (MRSA (B042 V2E1 A)) [µM] | MIC (MRSA (B042 V2E1 A)) [µM] | MIC against MRSA in the presence of 4 µM FeCl3 (MRSA (NCTC 12493) [4]) [µM] | MIC against MRSA in the presence of 8 µM ZnCl2 (MRSA (NCTC 12493) [4]) [µM] | MIC against MRSA in the presence of 2 mM CaCl2 (MRSA (NCTC 12493) [4]) [µM] | MIC against MRSA in the presence of 150 mM NaCl (MRSA (NCTC 12493) [4]) [µM] | MIC against MRSA in the presence of 10% FBS (MRSA (NCTC 12493) [4]) [µM] | MIC against K. pneumoniae in the presence of 4 µM FeCl3 [5] [µM] | MIC against K. pneumoniae in the presence of 6 µM NH4Cl [5] [µM] | MIC against K. pneumoniae in the presence of 8 µM ZnCl2 [5] [µM] | MIC against K. pneumoniae in the presence of 1 mM MgCl2 [5] [µM] | MIC against K. pneumoniae in the presence of 2 mM CaCl2 [5] [µM] | MIC against K. pneumoniae in the presence of 4.5 mM KCl [5] [µM] | MIC against K. pneumoniae in the presence of 150 mM NaCl [5] [µM] | MIC against K. pneumoniae in the presence of 10% FBS [5] [µM] | MIC against K. pneumoniae, Negative [5] [µM] | MIC against MRSA in the presence of 6 µM NH4Cl (MRSA (NCTC 12493) [4]) [µM] | further results
1 | CC[C@@H](C)[C@@H](NC(=O)[C@H](CCCCN)NC(=O)[C@@H]1CCCN1C(=O)[C@H](CC(C)C)NC(=O)[C@H](CC(C)C)NC(=O)[C@H](CO)NC(=O)[C@H](CO)NC(=O)[C@H](CC(C)C)NC(=O)[C@H](C)NC(=O)CNC(=O)[C@@H](NC(=O)[C@@H](NC(=O)[C@H](CC(C)C)NC(=O)[C@@H]1CCCN1C(=O)[C@H](CC(C)C)NC(=O)[C@@H](N)Cc1ccccc1)[C@@H](C)CC)[C@@H](C)CC)C(=O)N[C@@H](Cc1ccccc1)C(N)=O [Temporin-PKE-i] (H-FLPLIIGALSSLLPK[dI]F-NH2) | 2 | >512 | 4 µM (≈ 7.37 µg/mL) | 4 (≈ 7.37 µg/mL) | 4 (≈ 7.37 µg/mL) | 2 | 16 | 4 | 4 | 8 | >512 | >512 | >512 | >512 | >512 | >512 | >512 | >512 | >512 |  | MIC (MRSA (NCTC 12493) [3]): 4 µM (≈ 7.37 µg/mL)
2 | FLPLIIGALSSLLPKIF-NH2 [Temporin-PKE] | 4 | >512 | 2/2 μM |  |  | 8 | 32 | 8 | 8 | 16 | >512 | >512 | >512 | >512 | >512 | >512 | >512 | >512 | >512 | 8 | MIC (MRSA (NCTC 12493) [3]; read-out: MIC): 2 µM; MBC (MRSA (B042 V2E1 A); read-out: MBC): 8 µM; MIC (MRSA (B042 V2E1 A); read-out: MIC): 4 µM; MIC against MRSA in the presence of 1 mM MgCl2 (MRSA (NCTC 12493) [4]): 8 µM; MIC against MRSA in the presence of 4.5 mM KCl (MRSA (NCTC 12493) [4]): 8 µM; MIC against MRSA, Negative (MRSA (NCTC 12493) [4]): 2 µM
3 | FLPLIIGALSSKLPKIF-NH2 [Temporin-PKE-K12] | 4 | >512 | 4 µM | 4 | 4 | 8 | 32 | 16 | 32 | 32 | 32 | 32 | 64 | 128 | 256 | 32 | 128 | 128 | 32 | 8 | MIC (MRSA (NCTC 12493) [3]): 4 µM; MIC against MRSA in the presence of 1 mM MgCl2 (MRSA (NCTC 12493) [4]): 16 µM; MIC against MRSA in the presence of 4.5 mM KCl (MRSA (NCTC 12493) [4]): 32 µM; MIC against MRSA, Negative (MRSA (NCTC 12493) [4]): 4 µM
4 | FLPKIIGKLSSLLPKIF-NH2 [Temporin-PKE-3K] | 2 | 64 | 2/2 μM | 2 | 2 | 2 | 16 | 4 | 8 | 4 | 16 | 4 | 4 | 16 | 16 | 4 | 16 | 16 | 4 | 4 | MIC (MRSA (NCTC 12493) [3]; read-out: MIC): 2 µM; MIC against MRSA in the presence of 1 mM MgCl2 (MRSA (NCTC 12493) [4]): 4 µM; MIC against MRSA in the presence of 4.5 mM KCl (MRSA (NCTC 12493) [4]): 4 µM; MIC against MRSA, Negative (MRSA (NCTC 12493) [4]): 2 µM
